Columns and labels:
[1] = target: T1, Fatty acid-binding protein, adipocyte (Mus musculus) (UniProt P04117); assay: Inhibition of FABP4 in mouse RAW264.7 cells assessed as inhibition of LPS-induced TNFalpha production after 24 hrs by ELISA; type: cell-based
T1 sequence (whole entry): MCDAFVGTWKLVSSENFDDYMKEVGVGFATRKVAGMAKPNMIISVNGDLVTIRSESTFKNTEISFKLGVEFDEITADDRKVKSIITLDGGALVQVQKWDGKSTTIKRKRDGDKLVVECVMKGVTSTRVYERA

[2] = target: T1, Fatty acid-binding protein, adipocyte (Mus musculus); assay: Inhibition of FABP4 in mouse RAW264.7 cells assessed as inhibition of LPS-induced TNFalpha expression after 24 hrs by qPCR method; type: cell-based
[3] = target: T2, Fatty acid-binding protein, adipocyte (Homo sapiens, UniProt P15090); assay: Displacement of 1,8-ANS from His6-tagged FABP4 (unknown origin) expressed in Escherichia coli BL21(DE3) cells by fluorescence assay; settings: read-out: Ki(app)
Target sequence in this assay (P15090 whole entry): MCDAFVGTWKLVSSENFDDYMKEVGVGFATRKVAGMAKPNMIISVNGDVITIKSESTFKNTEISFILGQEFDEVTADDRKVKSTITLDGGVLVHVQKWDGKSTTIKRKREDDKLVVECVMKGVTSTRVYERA

[4] = target: T2, Fatty acid-binding protein, adipocyte; assay: Binding affinity to His6-tagged FABP4 (unknown origin) expressed in Escherichia coli BL21(DE3) cells assessed as change in melting temperature at 50 uM after 30 mins by SYPRO orange dye based thermal stability shift assay
Target sequence in this assay (P15090 2-132 limits assumed): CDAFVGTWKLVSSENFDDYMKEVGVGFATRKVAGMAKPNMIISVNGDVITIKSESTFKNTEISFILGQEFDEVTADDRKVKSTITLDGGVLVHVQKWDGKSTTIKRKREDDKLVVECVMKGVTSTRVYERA

[5] = target: T3, Fatty acid-binding protein, intestinal (Homo sapiens) (UniProt P12104); assay: Displacement of 1,8-ANS from His6-tagged FABP2 (unknown origin) expressed in Escherichia coli BL21(DE3) cells at 25 uM by fluorescence assay relative to control
T3 sequence (whole entry): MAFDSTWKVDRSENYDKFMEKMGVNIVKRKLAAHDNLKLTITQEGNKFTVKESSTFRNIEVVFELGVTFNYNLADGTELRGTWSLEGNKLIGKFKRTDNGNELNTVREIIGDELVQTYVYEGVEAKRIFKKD

[6] = target: T1, Fatty acid-binding protein, adipocyte (Mus musculus); assay: Inhibition of FABP4 in mouse RAW264.7 cells assessed as inhibition of LPS-induced IL-6 expression after 24 hrs by qPCR method; type: cell-based
[7] = target: Fatty acid-binding protein, brain (Homo sapiens) (UniProt O15540); assay: Displacement of 1,8-ANS from His6-tagged FABP7 (unknown origin) expressed in Escherichia coli BL21(DE3) cells at 25 uM by fluorescence assay relative to control
Chain of Fatty acid-binding protein, brain (Homo sapiens) (O15540 2-132 limits assumed): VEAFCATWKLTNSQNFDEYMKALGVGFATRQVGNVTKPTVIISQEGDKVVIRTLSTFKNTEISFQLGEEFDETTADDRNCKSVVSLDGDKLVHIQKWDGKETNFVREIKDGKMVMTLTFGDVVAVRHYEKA

Homo sapiens [8] = species: Homo sapiens; assay: Displacement of 1,8-ANS from His6-tagged FABP4 (unknown origin) R106A mutant expressed in Escherichia coli BL21(DE3) cells at 25 uM by fluorescence assay relative to control
[9] = target: T4, Fatty acid-binding protein, heart (Homo sapiens, UniProt P05413); assay: Displacement of 1,8-ANS from His6-tagged FABP3 (unknown origin) expressed in Escherichia coli BL21(DE3) cells by fluorescence assay; settings: read-out: Ki(app)
Target sequence in this assay (P05413 whole entry): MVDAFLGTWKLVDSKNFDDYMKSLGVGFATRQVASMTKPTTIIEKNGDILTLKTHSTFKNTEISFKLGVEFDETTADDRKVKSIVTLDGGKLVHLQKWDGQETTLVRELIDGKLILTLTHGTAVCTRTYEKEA

[10] = target: Myelin P2 protein (Homo sapiens) (UniProt P02689); assay: Displacement of 1,8-ANS from His6-tagged FABP8 (unknown origin) expressed in Escherichia coli BL21(DE3) cells at 25 uM by fluorescence assay relative to control
Chain of Myelin P2 protein (Homo sapiens) (P02689 whole entry, looked up): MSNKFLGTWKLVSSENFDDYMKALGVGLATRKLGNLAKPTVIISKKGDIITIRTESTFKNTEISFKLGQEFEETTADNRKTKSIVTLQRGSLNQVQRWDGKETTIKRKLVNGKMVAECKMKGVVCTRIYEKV

Homo sapiens [11] = species: Homo sapiens; assay: Displacement of 1,8-ANS from His6-tagged FABP4 (unknown origin) R126A mutant expressed in Escherichia coli BL21(DE3) cells at 25 uM by fluorescence assay relative to control
[12] = target: T5, Fatty acid-binding protein, liver (Homo sapiens) (UniProt P07148); assay: Displacement of 1,8-ANS from His6-tagged FABP1 (unknown origin) expressed in Escherichia coli BL21(DE3) cells at 25 uM by fluorescence assay relative to control
T5 sequence (whole entry): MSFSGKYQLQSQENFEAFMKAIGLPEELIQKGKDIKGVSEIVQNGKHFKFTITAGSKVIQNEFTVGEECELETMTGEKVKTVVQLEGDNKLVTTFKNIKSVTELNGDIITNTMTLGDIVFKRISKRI

[13] = target: T2, Fatty acid-binding protein, adipocyte; assay: Direct binding to His6-tagged FABP4 (unknown origin) expressed in Escherichia coli BL21(DE3) cells by isothermal titration calorimetry
Target sequence in this assay (P15090 whole entry): as the sequence (P15090 whole entry) above

[14] = target: Fatty acid-binding protein 5 (Homo sapiens) (UniProt Q01469); assay: Displacement of 1,8-ANS from His6-tagged FABP5 (unknown origin) expressed in Escherichia coli BL21(DE3) cells at 25 uM by fluorescence assay relative to control
Chain of Fatty acid-binding protein 5 (Homo sapiens) (Q01469 whole entry): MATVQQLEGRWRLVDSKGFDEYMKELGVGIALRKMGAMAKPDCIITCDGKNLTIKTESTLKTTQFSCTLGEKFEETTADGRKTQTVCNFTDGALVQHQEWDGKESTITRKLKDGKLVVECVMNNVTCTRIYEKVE

[15] = target: T4, Fatty acid-binding protein, heart; settings: 50 uM
Target sequence in this assay (P05413 2-133 limits assumed): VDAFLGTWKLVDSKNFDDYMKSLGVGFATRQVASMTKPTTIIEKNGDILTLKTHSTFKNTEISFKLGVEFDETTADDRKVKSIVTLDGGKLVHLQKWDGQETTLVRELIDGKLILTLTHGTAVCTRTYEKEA
Description: Binding affinity to His6-tagged FABP3 (unknown origin) expressed in Escherichia coli BL21(DE3) cells assessed as change in melting temperature at 50 uM after 30 mins by SYPRO orange dye based thermal stability shift assay

[16] = target: T2, Fatty acid-binding protein, adipocyte; assay: Displacement of 1,8-ANS from His6-tagged FABP4 (unknown origin) expressed in Escherichia coli BL21(DE3) cells at 25 uM by fluorescence assay relative to control
Target sequence in this assay (P15090 2-132 limits assumed): as the sequence (P15090 2-132 limits assumed) above

[17] = target: T4, Fatty acid-binding protein, heart; settings: 25 uM
Target sequence in this assay (P05413 2-133 limits assumed): as the sequence (P05413 2-133 limits assumed) above
Description: Displacement of 1,8-ANS from His6-tagged FABP3 (unknown origin) expressed in Escherichia coli BL21(DE3) cells at 25 uM by fluorescence assay relative to control

[18] = target: T6, Fatty acid-binding protein 9 (Homo sapiens) (UniProt Q0Z7S8); assay: Displacement of 1,8-ANS from His6-tagged FABP9 (unknown origin) expressed in Escherichia coli BL21(DE3) cells at 25 uM by fluorescence assay relative to control
T6 sequence (whole entry): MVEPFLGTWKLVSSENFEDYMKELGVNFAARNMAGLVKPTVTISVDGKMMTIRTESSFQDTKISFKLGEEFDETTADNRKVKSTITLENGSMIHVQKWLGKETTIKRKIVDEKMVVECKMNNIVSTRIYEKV

inhibition [1]: Dose-dependent effect
inhibition [2]: Dose-dependent effect
Ki [3]: 290 nM
ΔTm [4]: 8.5 °C
inhibition [5]: 34.1%
inhibition [6]: Dose-dependent effect
inhibition [7]: 58.5%
Ki [9]: 1300 nM
inhibition [10]: 68.4%
inhibition [12]: 95.5%
Kd [13]: 2650 nM
inhibition [14]: 77.7%
ΔTm [15]: 4 °C
inhibition [16]: 95.1%
inhibition [17]: 63.1%
inhibition [18]: 64%
Structure (SMILES): O=C(O)C1C2CC=CC2c2cc(Br)cc3c2N1CC1CC=CC31 (stereo not drawn)
inhibition (Homo sapiens [8]): 27%
inhibition (Homo sapiens [11]): 54.7%

From ChEMBL document CHEMBL3826919, “The discovery of novel and selective fatty acid binding protein 4 inhibitors by virtual screening and biological evaluation” (Bioorg Med Chem, 2016)
